# Results reported in US9084748B2, “Biopolymer produced by fermenting the extract of soybean with folic acid and a composition containing thereof” (Damy Chemical Co., Ltd., priority 2007, dated 2015).
# Assays:
# [1] = test system: human dermal fibroblast neonatal; assay: Collagen biosynthesis promotion, human collagen type-1 ELISA; format: cell-based
# Experimental: The folyl EFS and the human dermal fibroblast neonatal were incubated for 3 days, and the supernatant was isolated and collagen was quantified using a human collagen type-1 ELISA kit (Cosmo Bio Co.). A sample used in the current experiment was a 1% solution containing Composition 2 used in Preparation Example 2, and 4% of 1,3-butyleneglycol was added to the sample and preserved. Also, to compare with the effect of the folyl EFS, a folic acid solution in which the concentration of the folic acid was the same as that in the folyl EFS was prepared. In addition, 10 ng/ml of transforming growth factor-beta (TGF-β; Sigma), which is known as a promotion factor for collagen biosynthesis, was compared with the folyl EFS.
# The collagen biosynthesis promotion effect of the folyl EFS is shown in the bar chart of FIG. 8. A folyl EFS produced as a cosmetic source material was a 1% liquid product. In FIG. 8, the concentration (%) of the x-axis denotes a ratio of the volume of the folyl EFS to the volume of the entire culture solution (v/v, %). The results are represented as the ratio of the value of collagen of each group with respect to the average value of collagen in a group not treated with anything when the average value of collagen in the group not treated with anything was set at 100%. […]
# [2] = test system: human dermal fibroblast neonatal (HDF-N); assay: Cell growth of fibroblast primary culture, neutral red (NR) assay; format: cell-based; details: fibroblasts incubated 24 hours
# Source text: It was identified through the current experiment that the folyl EFS promotes cell growth and collagen biosynthesis. A cell line used in the current experiment was a primary culture of a fibroblast (human dermal fibroblast neonatal; (HDF-N; Gibco, Cooper, M. L. et al, Biomaterials 12:243, 1991), and a culture media used was a fibroblast neonatal growth medium (FGM, KDR Co.). […] Shao-Zeng Z. et al., Cell Biology and Toxicology, 6:2, 1990) (see FIG. 7).
# [3] = test system: mast cells (ATCC TIB-64, P815); assay: Quantifying histamine secreted by C48/80-stimulated mast cells (ELISA); format: cell-based
# Experimental: This experiment was performed to identify how much the folyl EFS reduces the amount of histamine secreted when mast cells are treated with a stimulant. […] FIG. 2 is a bar chart showing the results of the experiment. […] As described above, it can be seen that the folyl EFS has an excellent anti-histamine (anti-allergic) effect.
# mice (BALB/C, male) = assay: Anti-allergic (anti-anaphylaxis) test, C48/80 intraperitoneally injected; format: in vivo
# Experimental: C48/80 is a material that stimulates immune organs and induces acute anaphylaxis within 30 minutes when intraperperitoneally injected. In the current experiment, the number of test animals which died within a predetermined time period (24 hours) after the intraperperitoneal injection of the C48/80 was counted. In the current experiment, 10 mice (BALB/C, male) were used per group, and each group was tested for three times and the average value of the three experimental results was represented as a death ratio (%).
compound,measurement,setting,value
Nc1nc2ncc(CNc3ccc(C(=O)N[C@@H](CCC(=O)O)C(=O)O)cc3)nc2c(=O)[nH]1 [folic acid],collagen biosynthesis promotion effect,[1]; folic acid solution at same folic acid concentration as in folyl EFS,did not occur within an error range
same,cell growth rate when concentration gradually increased,[2],the cell growth rate was not increased accordingly
O=C(O)c1cc(=O)c2c(OCC(O)COc3cccc4oc(C(=O)O)cc(=O)c34)cccc2o1 [sodium cromolyn],ED50 value (histamine secretion inhibition),"[3]; C48/80-stimulated mast cells, ELISA",0.5%
same,histamine secretion inhibition rate,[3]; about 0.5% of the sodium cromolyn,50%
same,inhibition of development of anaphylaxis,"mice (BALB/C, male); 1% sodium cromolyn",up to 80%
same,inhibition of sequela of anaphylaxis,"mice (BALB/C, male); result in words",did not inhibit sequela of anaphylaxis
TGF-β,maximum promotion rate of collagen biosynthesis,"[1]; at 0.63% (v/v, %), 3 days, relative to untreated group set at 100%",22%
